Experimental data published in patent USRE48461E1, “Modulation of androgen receptor expression” (Ionis Pharmaceuticals, Inc., priority 2012, dated 2021).

Assays:
Format in all cases: cell-based, human
AR mRNA [1] = assay: AR mRNA levels in LMR20 cells (with/without DHT or R1881); details: with or without DHT/R1881
Description: (§1) LMR20 cells were plated at 1,500 cells per well in phenol red-free medium with CSS.

TMPRSS2 mRNA = TMPRSS2 mRNA levels in LMR20 cells; details: with or without DHT/R1881
Description: as §1

22RV1 cells [2] = assay: 22RV1 cell proliferation with/without DHT (MTT); details: 5 days; for Percent inhibition of 22RV1 cell proliferation: RNAiMAX
Description: 22RV1cells were plated at 1,500 cells per well. […] Separate sets of cells, also treated with each of the antisense oligonucleotides, were treated with DHT added on day 1 at a final concentration of 1 nM. After a treatment period of 5 days, the proliferative ability of the cancer cells was measured using the standard MTT assay. Results are presented in Table 69 as percent inhibition of proliferation, relative to non-treated cells.

AR mRNA [3] = assay: AR RNA expression in C4-2 cells (complete, CSS+DHT medium); details: 48 hrs; for Percent expression of AR: C4-2 cells, CSS + DHT medium
Description: Cells were plated at 1,000 cells per well. […] After an incubation period of 48 hrs, RNA levels of AR, PSA and TMPRSS2 were measured.
Cells were plated at 2,000 cells per well and cultured in CSS media with 1 nM DHT. […] After an incubation period of 48 hrs, RNA levels of AR, PSA and TMPRSS2 were measured.

PSA mRNA [4] = assay: PSA expression in C4-2B cells (Example 30); details: 48 hrs
Description: Cells were plated at 1,000 cells per well. […] ISIS 549148 was included as a negative control. […] After an incubation period of 48 hrs, RNA levels of AR, PSA and TMPRSS2 were measured.
Cells were plated at 2,000 cells per well and cultured in CSS media with 1 nM DHT. […] ISIS 549148 was included as a negative control. […] After an incubation period of 48 hrs, RNA levels of AR, PSA and TMPRSS2 were measured. In the absence of DHT, AR expression in C4-2 cells was 188%, PSA expression was 43% and TMPRSS2 expression was 27% compared to the untreated control.

VCaP cells [5] = assay: VCaP cell proliferation; details: 5 days; for Proliferation (% untreated control): VCaP cells
Description: After a treatment period of 5 days in complete medium or CSS+1 nM DHT medium, the proliferative capacity of the cancer cells was measured with using CellTiter 96® AQueous One or CellTiter-Glo® Solution Cell Proliferation kit (Promega), following the manufacturer's instructions. […] Treatment with ISIS oligonucleotides in CSS+DHT medium reduced the proliferative capacity to a greater extent than treatment with MVD-3100. The proliferative capacity of cells cultured in CSS medium without DHT is 12% of untreated control levels.

VCaP cells [6] = assay: VCaP apoptosis (Caspase-Glo 3/7); details: complete medium, 72 hours; for Apoptosis (% untreated control): VCaP cells
Description: After a treatment period of 72 hours in complete medium, apoptosis of the cancer cells was measured with Caspase-Glo 3/7 assay (Promega). Results are presented in Tables 117 and 118 as percent apoptosis of the cells, relative to non-treated cells.

PSA mRNA [7] = assay: PSA expression in 22RV1 cells; details: RNAiMax, 48 hrs
Description: Cells were plated at 1,000 cells per well. […] After an incubation period of 48 hrs, RNA levels of full length AR, the V7 variant, PSA and TMPRSS2 were measured.
After an incubation period of 48 hrs, RNA levels of full length AR, the V7 variant, PSA and TMPRSS2 were measured.
Cells were plated at 2,000 cells per well and cultured in CSS media for 16 hours. […] After 4 hrs, 1 nM DHT was added. […] After an incubation period of 48 hrs, RNA levels of AR, AR V7 variant, PSA and TMPRSS2 were measured.

22RV1 cells [8] = assay: 22RV1 cell proliferation (Example 32); details: 5 days; for Proliferation (% untreated control): 22RV1 cells, complete medium
Description: After a treatment period of 5 days in complete medium, the proliferative capacity of the cancer cells was measured with using CellTiter 96® AQueous One or CellTiter-Glo® Solution Cell Proliferation kit (Promega), following the manufacturer's instructions. […] Treatment with ISIS oligonucleotides in CSS+DHT medium reduced the proliferative capacity to a greater extent than treatment with MVD-3100. The proliferative capacity of cells cultured in CSS medium without DHT is 12% of untreated control levels.

Q: Which “AR mRNA levels in LMR20 cells” value (AR mRNA [1]) does the source give for “TTGATTTAATGGTTGC [ISIS 560131] (MOE and (S)-cEt gapmer chemistry, further chemistry not given here) [targets intron 1]” here?
A: Its value is “reduced AR mRNA levels in LMR20 cells, treated with or without either AR agonist, in a dose dependent manner relative to the baseline”.

Q: What about the “TMPRSS2 mRNA levels in LMR20 cells” value (TMPRSS2 mRNA) of the same sequence?
A: The value was “reduced PSA levels and TMPRSS2 more extensively than the LNA gapmer ISIS 554221 or MDV3100”.

Q: And the “Percent inhibition of 22RV1 cell proliferation” value (22RV1 cells [2]; +DHT (1 nM), ASO 1.34 nM)?
A: Its value is 0%.

Q: What about the “Percent inhibition of 22RV1 cell proliferation” value (22RV1 cells [2]; +DHT (1 nM), ASO 4.0 nM) of the same sequence?
A: The value was 1%.

Q: And the “Percent inhibition of 22RV1 cell proliferation” value (22RV1 cells [2]; +DHT (1 nM), ASO 13.4 nM)?
A: The value was 13%.

Q: What about the “Percent inhibition of 22RV1 cell proliferation” value (22RV1 cells [2]; +DHT (1 nM), ASO 40.0 nM) of the same sequence?
A: Its value is 34%.

Q: And the 22RV1 cell proliferation (22RV1 cells [2]; with or without 1 nM DHT)?
A: Its 22RV1 cell proliferation is “significantly inhibited prostate cancer cell proliferation even in the presence of AR activator, DHT, compared to the control”.

Q: What about the “Percent inhibition of 22RV1 cell proliferation” value (22RV1 cells [2]; −DHT, ASO 1.34 nM) of the same sequence?
A: The value was 0%.

Q: And the “Percent inhibition of 22RV1 cell proliferation” value (22RV1 cells [2]; −DHT, ASO 4.0 nM)?
A: Its value is 2%.

Q: And the “Percent inhibition of 22RV1 cell proliferation” value (22RV1 cells [2]; −DHT, ASO 13.4 nM)?
A: The value was 29%.

Q: And the “Percent inhibition of 22RV1 cell proliferation” value (22RV1 cells [2]; −DHT, ASO 40.0 nM)?
A: The value was 54%.

Q: And the “Percent expression of AR” value (AR mRNA [3]; 0.04 μM)?
A: Its value is 88%.

Q: What about the “Percent expression of AR” value (AR mRNA [3]; 0.2 μM) of the same sequence?
A: The value was 57%.

Q: And the “Percent expression of AR” value (AR mRNA [3]; 1 μM)?
A: Its value is 20%.

Q: And the “Percent expression of AR” value (AR mRNA [3]; 5.0 μM)?
A: Its value is 15%.

Q: And the “Percent expression of AR in C4-2 cells cultured in complete medium” value (“Percent expression of AR … in complete medium” for short) (AR mRNA [3]; 0.04 μM)?
A: The value was 48%.

Q: What about the “Percent expression of AR … in complete medium” value (AR mRNA [3]; 0.2 μM) of the same sequence?
A: Its value is 13%.

Q: And the “Percent expression of AR … in complete medium” value (AR mRNA [3]; 1 μM)?
A: Its value is 8%.

Q: What about the “Percent expression of AR … in complete medium” value (AR mRNA [3]; 5.0 μM) of the same sequence?
A: Its value is 8%.

Q: What about the “Percent inhibition of PSA expression” value (PSA mRNA [4]; CSS + DHT medium, 0.04 μM) of the same sequence?
A: Its value is 0%.

Q: And the “Percent inhibition of PSA expression” value (PSA mRNA [4]; CSS + DHT medium, 0.2 μM)?
A: The value was 17%.

Q: And the “Percent inhibition of PSA expression” value (PSA mRNA [4]; CSS + DHT medium, 1 μM)?
A: The value was 50%.

Q: And the “Percent inhibition of PSA expression” value (PSA mRNA [4]; CSS + DHT medium, 5.0 μM)?
A: The value was 61%.

Q: What about the “Percent inhibition of PSA expression” value (PSA mRNA [4]; complete medium, 0.04 μM) of the same sequence?
A: Its value is 56%.

Q: What about the “Percent inhibition of PSA expression” value (PSA mRNA [4]; complete medium, 0.2 μM) of the same sequence?
A: Its value is 84%.

Q: And the “Percent inhibition of PSA expression” value (PSA mRNA [4]; complete medium, 1 μM)?
A: Its value is 89%.

Q: And the “Percent inhibition of PSA expression” value (PSA mRNA [4]; complete medium, 5.0 μM)?
A: The value was 92%.

Q: And the “Proliferation (% untreated control)” value (VCaP cells [5]; CSS + DHT medium, 1.34 nM)?
A: Its value is 95 % untreated control.

Q: What about the “Proliferation (% untreated control)” value (VCaP cells [5]; CSS + DHT medium, 4.0 nM) of the same sequence?
A: The value was 65 % untreated control.

Q: And the “Proliferation (% untreated control)” value (VCaP cells [5]; CSS + DHT medium, 13.4 nM)?
A: Its value is 42 % untreated control.

Q: What about the “Proliferation (% untreated control)” value (VCaP cells [5]; CSS + DHT medium, 40 nM) of the same sequence?
A: The value was 37 % untreated control.

Q: And the “Proliferation (% untreated control)” value (VCaP cells [5]; complete medium, 1.34 nM)?
A: The value was 98 % untreated control.

Q: And the “Proliferation (% untreated control)” value (VCaP cells [5]; complete medium, 4.0 nM)?
A: Its value is 66 % untreated control.

Q: And the “Proliferation (% untreated control)” value (VCaP cells [5]; complete medium, 13.4 nM)?
A: The value was 53 % untreated control.

Q: And the “Proliferation (% untreated control)” value (VCaP cells [5]; complete medium, 40 nM)?
A: Its value is 48 % untreated control.

Q: What about the “proliferation of VCaP cells” value (VCaP cells [5]; complete medium or CSS+1 nM DHT) of the same sequence?
A: Its value is “reduced proliferation of the cells in a dose dependent compared to the control”.

Q: What about the “Apoptosis (% untreated control)” value (VCaP cells [6]; 1.34 nM) of the same sequence?
A: Its value is 189 % untreated control.

Q: What about the “Apoptosis (% untreated control)” value (VCaP cells [6]; 4.0 nM) of the same sequence?
A: The value was 253 % untreated control.

Q: And the “Apoptosis (% untreated control)” value (VCaP cells [6]; 13.4 nM)?
A: Its value is 356 % untreated control.

Q: What about the “Apoptosis (% untreated control)” value (VCaP cells [6]; 40 nM) of the same sequence?
A: The value was 262 % untreated control.

Q: What about the “apoptosis of VCaP cells” value (VCaP cells [6]) of the same sequence?
A: Its value is “increased apoptosis of the cells in a dose dependent compared to the control”.

Q: And the “Percent inhibition of PSA expression” value (PSA mRNA [7]; CSS + DHT medium, 1.34 nM)?
A: The value was 3%.

Q: What about the “Percent inhibition of PSA expression” value (PSA mRNA [7]; CSS + DHT medium, 4.0 nM) of the same sequence?
A: The value was 50%.

Q: And the “Percent inhibition of PSA expression” value (PSA mRNA [7]; CSS + DHT medium, 13.4 nM)?
A: The value was 66%.

Q: What about the “Percent inhibition of PSA expression” value (PSA mRNA [7]; complete medium, 1.34 nM) of the same sequence?
A: The value was 10%.

Q: What about the “Percent inhibition of PSA expression” value (PSA mRNA [7]; complete medium, 4.0 nM) of the same sequence?
A: Its value is 20%.

Q: And the “Percent inhibition of PSA expression” value (PSA mRNA [7]; complete medium, 13.4 nM)?
A: The value was 27%.

Q: And the “Percent inhibition of PSA expression” value (PSA mRNA [7]; complete medium, 40 nM)?
A: Its value is 36%.

Q: And the “Proliferation (% untreated control)” value (22RV1 cells [8]; 1.34 nM)?
A: Its value is 94 % untreated control.

Q: What about the “Proliferation (% untreated control)” value (22RV1 cells [8]; 4.0 nM) of the same sequence?
A: Its value is 72 % untreated control.

Q: And the “Proliferation (% untreated control)” value (22RV1 cells [8]; 13.4 nM)?
A: Its value is 50 % untreated control.

Q: What about the “Proliferation (% untreated control)” value (22RV1 cells [8]; 40 nM) of the same sequence?
A: Its value is 17 % untreated control.

Q: And the “proliferation of 22RV1 cells” value (22RV1 cells [8])?
A: Its value is “reduced proliferation of the cells in a dose dependent compared to the control”.
